# Laboratory results reported in a melting point compilation (Tetko et al.; mined from patent text by program, amines drawn as free bases though some values may be those of a salt).
row,SMILES,melting point
1,Cn1c(OC2CCOC2)nn(C(=O)NS(=O)(=O)c2ccccc2Br)c1=O (centres undefined),191 °C
2,O=C(O)CCC1CCC(=O)N1 (centres undefined),125 to 127 °C
3,CC=CCOc1c(I)cc(C(C)O)nc1Cl (centres undefined),61 to 62.5 °C
4,Cc1cc(-c2[nH]c3ccc([N+](=O)[O-])cc3c2C)cc(C)c1O,229 to 231 °C
5,O=C(Nc1cc2ncc(CN3CCCC3)cc2cc1F)c1ccc(-c2ccc(OC(F)(F)F)cc2)cc1,184 to 187 °C
6,N#CC1(Sc2ccccc2)Cc2cc3c(cc21)N(C(=O)Nc1cccnc1)CC3 (centres undefined),110 to 113 °C
7,COc1cc(-c2ccccc2F)c(Cl)cc1C(=O)N1Cc2ccc(C(=O)N(CC(O)CO)CC(O)C(O)CO)n2Cc2ccccc21 (centres undefined),192 to 194 °C
8,CCOc1nc(NCc2ccco2)nc(Oc2cccc(C(F)(F)F)c2)n1,97 to 99 °C
9,CCCc1c(C(=O)C2CCCCC2)c2ccc(C(N)=O)cc2n1Cc1ccccc1Cl,208 to 210 °C
10,Nc1nc(O)c2c(n1)NCC(CCc1c[nH]c(C(=O)O)c1)C2 (centres undefined),> 260 °C
11,Cc1nc(N)nc(N)c1-c1cc(Cl)c([N+](=O)[O-])c(Cl)c1Cl,313 to 315 °C
12,C[Si](C)(C)C#Cc1ccc2c(c1)C1(c3ccccc3-c3ccccc31)c1cc(C#C[Si](C)(C)C)ccc1-2,267 to 269 °C
13,NC(=O)c1ccc(CCCCCCN2CCOCC2)cc1O,70 to 73 °C
14,CCN(C(C)=O)c1cccc(-c2ccn3ncc(C#N)c3n2)c1,194 to 196 °C
15,CCOC(=O)C1C(=O)NC(=O)C(C#N)C12CCCCC2 (centres undefined),167 to 170 °C
16,O=C(O)CCCCCCCCn1c(-c2ccccc2)c(-c2ccccc2)n(-c2ccccc2)c1=O,123 to 124 °C
17,c1csc(-c2cnc(-c3cccs3)o2)c1,64.5 to 66 °C
18,OCCc1ccc(Nc2ncc3c(n2)-c2ccccc2C(c2cccc(Br)c2)C3)cc1 (centres undefined),88 to 90 °C
19,CCOC(=O)c1cc2c([nH]1)CN(C(=O)OCC(Cl)(Cl)Cl)CC2,126 to 127 °C
20,CCOC(=O)c1c(Cn2cncn2)nc2sc3c(c2c1-c1ccc(OC)c(OC)c1)CCNC3,164 to 165 °C
21,C=Cc1ccc(CSCCNC(=O)COCC(=O)O)cc1,44.5 to 46 °C
22,CS(=O)(=O)c1ccc(C(=O)C2C(=O)CCCC2=O)c(Cl)c1C1=NOC(Cc2ccccc2)C1 (centres undefined),72 to 76 °C
23,CCOc1cc(-c2cc(C(F)F)n3ncc(C(=O)Nc4cccc(S(C)(=O)=O)c4)c3n2)ccc1C(F)(F)F,211 °C

row,SMILES,melting point
1,NNC(=O)c1cn(C2CCN(Cc3ccccc3)C2)nn1 (centres undefined),123 °C
2,O=C(NOCCBr)Nc1ccc(Cl)c(Cl)c1,126 °C
3,CSc1ccc2c(SCc3ccc(N(CCO)CCO)cc3)ccnc2c1,162 to 165 °C
4,CC[C@@H](c1ccccc1)N(Cc1cccc(C(=O)O)c1)S(=O)(=O)c1ccc(Cl)cc1,65 to 67 °C
5,Cc1nc(N)[nH]c(=O)c1N1CCN(c2ccc(CN)cc2)CC1,281 to 282 °C
6,CC(C)CP(=O)(CCC(=O)O)CCC(=O)O,186 to 187 °C
7,CN=C(NC#N)C1=CC(CF)(CF)Oc2ccc(C(F)(F)C(F)(F)F)cc21,178 to 179 °C
8,CCCc1cc(Cl)c(OC(C(=O)O)c2ccccc2)c(C(C)=O)c1O (centres undefined),131 to 133 °C
9,O=[N+]([O-])c1ccc(CN2CC=C(/C=C/c3ccccc3)CC2)cc1,142 to 144 °C
10,Cc1ccc2c3[nH]nc(Cc4ccccc4)c3c(=O)n(-c3ccccc3)c2n1,300 to 302 °C
11,Cc1nc(N)nc(Cl)c1C,212 to 220 °C
12,CCOC(=O)C(=CNC1CCCCC1)C(=O)c1ccc(I)cc1Cl,154 to 156 °C
13,OC1CCCc2nc3ccccc3c(NCc3ccccc3C(F)(F)F)c21 (centres undefined),158 to 160 °C
14,CCCOc1ccc(S(=O)(=O)C(C)C)cc1-c1nc2c(CC)nn(C[C@@H]3CCCN3C(=O)OC(C)(C)C)c2c(=O)[nH]1,141 to 143 °C
15,CCc1ccc2c(c1)CC(=O)N2c1c(C)cccc1Cl,125 to 126 °C
16,O=C(Nc1cccc(Cl)c1)c1nc(-c2ccccc2)c2ccccc2c1O,195 to 197 °C
17,CCOc1nc2ccccc2nc1N(CC)C(=O)N1CCN(c2cc(OC)cc(OC)c2)CC1,144 to 146 °C
18,COC(=O)C12COc3cc(C(F)(F)F)ccc3C1=NN(C(=O)Nc1ccc(Br)cn1)C2 (centres undefined),179 to 181 °C
19,O=C(O)CCCC=CCCc1ccc(OCc2ccccc2)cc1,63 to 65 °C
20,O=C(C#Cc1ccccc1)Nc1nc2ccccc2s1,174 to 176 °C
21,CN1CCN(c2ccccc2C=C2C(=O)Nc3ccc(Cl)cc32)CC1,235 to 237 °C
22,O=C(O)C1=Cc2cc(CO)ccc2OC1C(F)(F)F (centres undefined),178 to 181 °C
23,O=C(O)c1cccc(Oc2ccccc2Cl)c1[N+](=O)[O-],185 to 187 °C

row,SMILES,melting point
1,COc1ccc(-c2cc(=S)n(Cc3ccncc3)nc2-c2ccc(OC)cc2)cc1,160 °C
2,CCCc1ccc(S(=O)(=O)Nc2ccc3oncc3c2)cc1,130 to 131 °C
3,O=c1oc2ccccc2c(O)c1CCC(O)c1ccccc1 (centres undefined),138 to 140 °C
4,COc1nc(-c2ccc(F)cc2)c(-c2ccc(S(C)(=O)=O)cc2)cc1C#N,202 to 204 °C
5,O=c1cc(-c2ccncn2)nc2n1CCCCC2,148 to 150 °C
6,CCN(C)c1nc2sc3c(NCc4ccco4)ncnc3c2c2c1CCC(C)(C)C2,116 to 118 °C
7,Nc1cccc(-c2ccc(CCN3CCN(C(=O)c4ccco4)CC3)cc2)n1,152 to 154 °C
8,CCn1nc(-c2ccccc2)c(C(C)=O)c(Nc2ccc([N+](=O)[O-])cn2)c1=O,200 to 201 °C
9,O=C(O)c1cn2c3c(c(N4CCNCC4)ccc3c1=O)CCC2,267 to 268 °C
10,COc1cc(N)c(Cl)cc1C(=O)NCC1CCN(CCCOCc2ccccc2)CC1,82 to 83 °C
11,Cc1ccc(C(Cn2cncn2)=NOCc2c(Cl)cccc2Cl)c(Cl)c1,97 to 99 °C
12,COC(=O)c1c(OC(C)=O)cc(CBr)cc1OC(C)=O,93 to 95 °C
13,O=C1c2cccc3cc4ccccc4c(c23)C(=O)N1CCNCCNCCN1C(=O)c2cccc3cc4ccccc4c(c23)C1=O,203 °C
14,O=C(Nc1cccc2c1CC(O)CC2)c1ccc(-c2ccc(F)c(F)c2)cc1 (centres undefined),210 to 213 °C
15,CC[C@@]1(C)OC(=O)C(c2ccc(F)cc2)=C1c1ccc(S(C)(=O)=O)cc1,120 to 121 °C
16,O=C1NC(Cc2ccc([N+](=O)[O-])c(OCc3ccccc3)c2)C(=O)Nc2ccccc21 (centres undefined),243 to 245 °C
17,COC(=O)c1cc(OC)c(CCNC(C)=O)c(OC)c1,233 to 235 °C
18,CC(C)OC1COc2ccc(OCc3ccc4ccccc4n3)cc2C1=O (centres undefined),85 °C
19,O=C1C(=O)c2ccc(Br)cc2C2=C1SCC1(CCN(CC(O)COc3ccc4cc(Br)ccc4c3)CC1)O2 (centres undefined),104 to 105 °C
20,CCN(CC)c1ccc(/C=C/c2cc(/C=C/c3ccc4cc[nH]c4c3)[nH]n2)cc1,201 to 204 °C
21,O=C(O)c1cc(Cl)cc(OCc2ccccc2)c1,127 to 129 °C
22,NC(=O)c1ccc(-c2ccc3nnn(Cc4c(F)cc5ncccc5c4F)c3n2)cc1Cl,216 to 219 °C
23,Cc1cc(C)c2nc(C)n(Cc3ccc(NCC4CCN(C(C)C)CC4)cc3)c2n1,134 to 136 °C
